Results as given in patent publication US20090186009A1, “SOLID MATTER CONTAINING COENZYME Q” (Kaneka Corporation, priority 2006, published 2009).

Assay: Crystallization rate of coenzyme Q10 in granule by differential scanning calorimetric analysis
Format: physicochemical
Details: DSC, calculated from melting heat (ΔH); 20° C.→80° C. (5° C./min)→−50° C.
Experimental: Calorimetric analysis of coenzyme Q10 granules obtained in Example 1 and Example 4 and oxidized coenzyme Q10 powder (Kaneka-coenzyme Q10) used as the starting material in Preparation Examples 1-3 by a differential scanning calorimetric analyzer (manufactured by SII; EXSTAR6000 DSC6220) was performed under the following conditions. The crystallization rate was calculated from the measurement value of the melting heat (ΔH).
Analysis conditions; 20° C.→80° C. (5° C./min)→−50° C. (−5° C./min)

crystallinity degree: 100%
SMILES: COC1=C(OC)C(=O)C(C/C=C(\C)CC/C=C(\C)CC/C=C(\C)CC/C=C(\C)CC/C=C(\C)CC/C=C(\C)CC/C=C(\C)CC/C=C(\C)CC/C=C(\C)CCC=C(C)C)=C(C)C1=O [Kaneka coenzyme Q10, oxidized coenzyme Q10]
